According to paper PMC6562844, “A Basic Study of Photodynamic Therapy with Glucose-Conjugated Chlorin e6 Using Mammary Carcinoma Xenografts” (Cancers, 2019):
Where a SMILES comes first, the peptide text is derived from it. The star is where a group is joined. Cbz = O=C(OCc1ccccc1)*; CH2F = FC*

Legend:
[1] = system: SNP cells; test: Photodynamic cytotoxicity in SNP cells (Cell Counting Kit-8); assay type: cell-based, canine; settings: 24 h incubation, 650-nm laser 10 mW/cm^2, viability 24 h after PDT
Method: We seeded 1 × 10^4 SNP cells into each well of 96-well plates (Corning Inc., New York, NY, USA) followed by overnight incubation. Cells were then incubated with various concentrations of G-Ce6 for 24 h at 37 °C. After washing with fresh media, the cells were irradiated with 650-nm light emitted by a semiconductor laser (Osada Electric Co., Ltd., Tokyo, Japan), using an optical fiber with a micro-lens delivery attachment (Pioneer Optics, Inc., Windsor Lock, CT, USA). PDT was performed at 10 mW/cm^2 in cells exposed to six concentrations of NPe6 and G-Ce6 (0, 0.064, 0.32, 1.6, 8.0, or 40.0 μg/mL) using four light doses (0, 1, 5, or 15 J/cm^2). The cells were then incubated for 24 h in the dark prior to examining cell viability using the Cell Counting Kit-8 (Dojindo, Kumamoto, Japan), according to the manufacturer’s instructions.

[2] = system: SNP cells; test: Effect of a pan-caspase inhibitor on G-Ce6-PDT-induced cell death; assay type: cell-based, canine; settings: 10 μM Z-VAD-FMK; 8 μg/mL G-Ce6; 5 J/cm^2
Method: SNP cells were incubated with 8 μg/mL G-Ce6 for 24 h in the presence (10 μM) or absence of Z-VAD-FMK (Medical & Biological Laboratories Co. Ltd., Aichi, Japan), which is a pan-caspase inhibitor. After washing with fresh media, the cells were irradiated with 650-nm laser light (10 mW/cm^2, 5 J/cm^2) emitted by a semiconductor laser, using an optical fiber with a microlens delivery attachment. Apoptosis was assessed at 4 h after laser irradiation using the Muse Annexin V and Dead Cell Assay kit.

[3] = set-up: method as in earlier work; settings: cited from earlier work

Molecule: C=Cc1c(C)c2cc3nc(c(CC(=O)N[C@@H](CC(=O)[O-])C(=O)[O-])c4[nH]c(cc5nc(cc1[nH]2)C(C)=C5CC)c(C)c4C(=O)[O-])[C@@H](CCC(=O)[O-])[C@@H]3C.[Na+].[Na+].[Na+].[Na+] [NPe6, mono-L-aspartyl chlorin e6, reference compound]
- IC50 against SNP cells ([1]; light dose 1 J/cm^2): 75.2 µg/mL
- IC50 against SNP cells ([1]; light dose 5 J/cm^2): 30.4 µg/mL
- IC50 against SNP cells ([1]; light dose 15 J/cm^2): 30.6 µg/mL

Molecule: COC(=O)C[C@H](NC(=O)[C@H](C)NC(=O)[C@@H](NC(=O)OCc1ccccc1)C(C)C)C(=O)CF [Z-VAD-FMK, reference compound] (Cbz-Val-Ala-Asp(OMe)-CH2F)
- Influence on number of Annexin V-positive cells and cytotoxicity induced by G-Ce6-mediated PDT [2]: did not influence

Molecule: porfimer sodium
- AUC [3]: 1670.2 ± 71.6 µg·h/mL
- T1/2 [3]: 44.22 ± 8.10 h
